Experiments:
Bile salt export pump = Bile salt export pump (Homo sapiens, UniProt O95342); assay: Inhibition of human BSEP overexpressed in Sf9 cell membrane vesicles assessed as uptake of [3H]-taurocholate in presence of ATP measured after 15 to 20 mins by membrane vesicle transport assay; format: ADME, cell-based
[1] = molecular target: ATP-binding cassette sub-family C member 2 (Homo sapiens, UniProt Q92887); assay: Inhibition of human MRP2 overexpressed in Sf9 cell membrane vesicles assessed as uptake of [3H]-estradiol-17beta-D-glucuronide in presence of ATP and GSH measured after 20 mins by membrane vesicle transport assay
[2] = molecular target: ATP-binding cassette sub-family C member 3 (Homo sapiens, UniProt O15438); assay: Inhibition of human MRP3 overexpressed in Sf9 insect cell membrane vesicles assessed as uptake of [3H]-estradiol-17beta-D-glucuronide in presence of ATP and GSH measured after 10 mins by membrane vesicle transport assay; format: ADME, cell-based
[3] = molecular target: T1, ATP-binding cassette sub-family C member 4 (Homo sapiens, UniProt O15439); assay: Inhibition of human MRP4 overexpressed in Sf9 cell membrane vesicles assessed as uptake of [3H]-estradiol-17beta-D-glucuronide in presence of ATP and GSH measured after 20 mins by membrane vesicle transport assay; format: ADME, cell-based
T1 sequence (O15439 whole entry): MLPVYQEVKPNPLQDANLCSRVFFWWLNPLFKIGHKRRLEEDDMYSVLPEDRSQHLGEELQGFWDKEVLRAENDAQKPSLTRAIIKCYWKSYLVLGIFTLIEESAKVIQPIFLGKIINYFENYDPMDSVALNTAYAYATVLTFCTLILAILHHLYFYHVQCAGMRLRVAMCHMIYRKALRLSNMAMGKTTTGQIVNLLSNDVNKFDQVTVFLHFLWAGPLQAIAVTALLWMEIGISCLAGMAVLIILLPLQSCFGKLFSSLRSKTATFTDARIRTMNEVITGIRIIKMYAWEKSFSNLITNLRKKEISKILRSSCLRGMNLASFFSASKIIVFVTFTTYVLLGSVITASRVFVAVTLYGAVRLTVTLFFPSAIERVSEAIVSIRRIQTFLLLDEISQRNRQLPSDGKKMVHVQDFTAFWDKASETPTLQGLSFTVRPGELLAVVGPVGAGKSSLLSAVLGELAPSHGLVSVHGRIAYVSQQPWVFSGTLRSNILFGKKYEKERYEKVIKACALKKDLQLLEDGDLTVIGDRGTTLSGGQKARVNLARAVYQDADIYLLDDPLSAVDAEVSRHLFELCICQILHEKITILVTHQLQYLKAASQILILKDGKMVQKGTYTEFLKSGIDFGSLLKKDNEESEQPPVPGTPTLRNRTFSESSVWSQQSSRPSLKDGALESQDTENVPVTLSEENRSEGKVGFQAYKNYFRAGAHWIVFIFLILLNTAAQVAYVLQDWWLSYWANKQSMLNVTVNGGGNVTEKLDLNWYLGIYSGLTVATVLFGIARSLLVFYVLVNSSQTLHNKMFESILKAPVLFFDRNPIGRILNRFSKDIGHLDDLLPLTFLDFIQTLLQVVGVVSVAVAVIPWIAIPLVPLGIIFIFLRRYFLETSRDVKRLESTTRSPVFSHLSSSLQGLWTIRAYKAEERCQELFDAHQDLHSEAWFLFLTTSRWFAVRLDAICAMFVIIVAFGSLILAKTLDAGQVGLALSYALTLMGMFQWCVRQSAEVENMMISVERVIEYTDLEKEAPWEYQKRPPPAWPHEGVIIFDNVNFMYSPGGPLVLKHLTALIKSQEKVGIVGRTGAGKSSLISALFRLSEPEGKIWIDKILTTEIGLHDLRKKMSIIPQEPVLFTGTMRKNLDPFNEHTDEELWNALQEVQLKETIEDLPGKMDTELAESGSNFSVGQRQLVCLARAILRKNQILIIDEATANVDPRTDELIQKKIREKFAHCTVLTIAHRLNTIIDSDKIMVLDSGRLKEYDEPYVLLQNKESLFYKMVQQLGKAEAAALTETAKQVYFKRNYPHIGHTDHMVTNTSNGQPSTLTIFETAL

[4] = AUC in human at 1200 mg administered orally BID up to 2800 mg/day after 12 hrs; format: ADME; design: time < 12 hr, dose 1200 mg, route oral; settings: in vivo, po
[5] = Drug concentration at steady state in human at 1200 mg administered orally BID up to 2800 mg/day after 12 hrs; format: ADME; settings: in vivo, po, read-out: Css
[6] = Ratio of drug concentration at steady state in human at 1200 mg administered orally BID up to 2800 mg/day after 12 hrs to IC50 for human BSEP overexpressed in Sf9 insect cells; format: ADME; settings: in vivo, po
[7] = AUC in human at 300 mg, po QD after 24 hrs; format: ADME, organism-based; design: time < 24 hr, dose 300 mg, route oral; settings: in vivo
[8] = Drug concentration at steady state in human at 300 mg, po QD after 24 hrs; format: ADME, organism-based; settings: in vivo, read-out: Css
[9] = Ratio of drug concentration at steady state in human at 300 mg, po QD after 24 hrs to IC50 for human BSEP overexpressed in Sf9 insect cells; format: ADME, organism-based; settings: in vivo
[10] = Ratio of drug concentration at steady state in human at 300 mg, po QD after 24 hrs to IC50 for human MRP4 overexpressed in Sf9 insect cells; format: ADME, organism-based; settings: in vivo
[11] = AUC in human at 100 to 200 mg, po QD after 24 hrs; format: ADME, organism-based; settings: in vivo
[12] = Drug concentration at steady state in human at 100 to 200 mg, po QD after 24 hrs; format: ADME, organism-based; settings: in vivo, read-out: Css
[13] = Ratio of drug concentration at steady state in human at 100 to 200 mg, po QD after 24 hrs to IC50 for human BSEP overexpressed in Sf9 insect cells; format: ADME, organism-based; settings: in vivo
[14] = Ratio of drug concentration at steady state in human at 100 to 200 mg, po QD after 24 hrs to IC50 for human MRP2 overexpressed in Sf9 insect cells; format: ADME, organism-based; settings: in vivo
[15] = Ratio of drug concentration at steady state in human at 100 to 200 mg, po QD after 24 hrs to IC50 for human MRP4 overexpressed in Sf9 insect cells; format: ADME, organism-based; settings: in vivo
[16] = AUC in human at 62.5 to 125 mg, po BID after 12 hrs; format: ADME, organism-based; settings: in vivo
Homo sapiens = assay: Drug concentration at steady state in human at 62.5 to 125 mg, po BID after 12 hrs; format: ADME, organism-based; settings: in vivo
[17] = Ratio of drug concentration at steady state in human at 62.5 to 125 mg, po BID after 12 hrs to IC50 for human BSEP overexpressed in Sf9 insect cells; format: ADME, organism-based; settings: in vivo
[18] = Ratio of drug concentration at steady state in human at 62.5 to 125 mg, po BID after 12 hrs to IC50 for human MRP3 overexpressed in Sf9 insect cells; format: ADME, organism-based; settings: in vivo
[19] = Ratio of drug concentration at steady state in human at 62.5 to 125 mg, po BID after 12 hrs to IC50 for human MRP4 overexpressed in Sf9 insect cells; format: ADME, organism-based; settings: in vivo
[20] = AUC in human at 10 to 20 mg, po QID after 6 hrs; format: ADME, organism-based; settings: in vivo
[21] = Drug concentration at steady state in human at 10 to 20 mg, po QID after 6 hrs; format: ADME, organism-based; settings: in vivo, read-out: Css
[22] = Ratio of drug concentration at steady state in human at 10 to 20 mg, po QID after 6 hrs to IC50 for human BSEP overexpressed in Sf9 insect cells; format: ADME, organism-based; settings: in vivo
[23] = AUC in human at 0.5 to 2 mg/kg, po QD after 24 hrs; format: ADME, organism-based; settings: in vivo
[24] = Drug concentration at steady state in human at 0.5 to 2 mg/kg, po QD after 24 hrs; format: ADME, organism-based; settings: in vivo, read-out: Css
[25] = Ratio of drug concentration at steady state in human at 0.5 to 2 mg/kg, po QD after 24 hrs to IC50 for human BSEP overexpressed in Sf9 insect cells; format: ADME, organism-based; settings: in vivo

Sequence of ATP-binding cassette sub-family C member 3 (O15438 whole entry): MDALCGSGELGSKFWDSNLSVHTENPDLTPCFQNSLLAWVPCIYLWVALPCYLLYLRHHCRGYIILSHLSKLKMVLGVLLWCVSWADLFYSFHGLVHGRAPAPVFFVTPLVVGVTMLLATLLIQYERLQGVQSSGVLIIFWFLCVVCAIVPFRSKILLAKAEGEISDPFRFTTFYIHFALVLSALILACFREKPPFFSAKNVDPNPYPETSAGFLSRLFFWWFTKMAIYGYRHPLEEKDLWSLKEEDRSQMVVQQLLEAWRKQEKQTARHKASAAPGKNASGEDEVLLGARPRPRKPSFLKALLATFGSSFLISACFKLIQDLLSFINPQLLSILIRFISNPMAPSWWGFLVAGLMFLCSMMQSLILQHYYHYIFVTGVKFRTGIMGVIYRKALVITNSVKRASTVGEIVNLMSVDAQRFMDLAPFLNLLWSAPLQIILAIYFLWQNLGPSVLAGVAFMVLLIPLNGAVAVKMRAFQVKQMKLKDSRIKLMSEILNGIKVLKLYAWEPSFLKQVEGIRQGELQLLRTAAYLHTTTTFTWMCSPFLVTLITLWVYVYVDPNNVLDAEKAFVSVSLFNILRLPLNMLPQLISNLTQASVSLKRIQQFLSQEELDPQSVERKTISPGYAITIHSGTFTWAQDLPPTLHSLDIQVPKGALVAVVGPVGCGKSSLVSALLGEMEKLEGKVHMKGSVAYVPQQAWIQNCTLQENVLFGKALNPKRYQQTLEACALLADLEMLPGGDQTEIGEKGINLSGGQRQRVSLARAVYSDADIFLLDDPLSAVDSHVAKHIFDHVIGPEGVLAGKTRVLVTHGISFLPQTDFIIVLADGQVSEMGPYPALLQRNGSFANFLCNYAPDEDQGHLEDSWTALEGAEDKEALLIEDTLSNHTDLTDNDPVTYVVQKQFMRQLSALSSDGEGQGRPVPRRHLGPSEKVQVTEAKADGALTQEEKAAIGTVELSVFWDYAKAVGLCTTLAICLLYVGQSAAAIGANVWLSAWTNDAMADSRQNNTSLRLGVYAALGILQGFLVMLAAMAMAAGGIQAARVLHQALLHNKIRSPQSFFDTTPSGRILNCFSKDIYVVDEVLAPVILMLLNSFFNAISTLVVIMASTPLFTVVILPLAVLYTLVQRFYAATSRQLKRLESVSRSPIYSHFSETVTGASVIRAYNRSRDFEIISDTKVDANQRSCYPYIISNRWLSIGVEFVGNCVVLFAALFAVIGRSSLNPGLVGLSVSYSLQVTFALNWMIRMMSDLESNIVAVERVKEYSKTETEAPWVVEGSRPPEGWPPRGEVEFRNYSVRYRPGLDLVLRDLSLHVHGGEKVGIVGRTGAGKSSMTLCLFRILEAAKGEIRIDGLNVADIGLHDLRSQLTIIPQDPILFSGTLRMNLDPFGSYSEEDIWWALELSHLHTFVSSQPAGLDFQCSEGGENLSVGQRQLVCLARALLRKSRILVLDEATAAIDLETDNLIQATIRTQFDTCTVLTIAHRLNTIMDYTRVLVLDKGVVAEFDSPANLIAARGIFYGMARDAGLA
Sequence of ATP-binding cassette sub-family C member 2 (Q92887 whole entry): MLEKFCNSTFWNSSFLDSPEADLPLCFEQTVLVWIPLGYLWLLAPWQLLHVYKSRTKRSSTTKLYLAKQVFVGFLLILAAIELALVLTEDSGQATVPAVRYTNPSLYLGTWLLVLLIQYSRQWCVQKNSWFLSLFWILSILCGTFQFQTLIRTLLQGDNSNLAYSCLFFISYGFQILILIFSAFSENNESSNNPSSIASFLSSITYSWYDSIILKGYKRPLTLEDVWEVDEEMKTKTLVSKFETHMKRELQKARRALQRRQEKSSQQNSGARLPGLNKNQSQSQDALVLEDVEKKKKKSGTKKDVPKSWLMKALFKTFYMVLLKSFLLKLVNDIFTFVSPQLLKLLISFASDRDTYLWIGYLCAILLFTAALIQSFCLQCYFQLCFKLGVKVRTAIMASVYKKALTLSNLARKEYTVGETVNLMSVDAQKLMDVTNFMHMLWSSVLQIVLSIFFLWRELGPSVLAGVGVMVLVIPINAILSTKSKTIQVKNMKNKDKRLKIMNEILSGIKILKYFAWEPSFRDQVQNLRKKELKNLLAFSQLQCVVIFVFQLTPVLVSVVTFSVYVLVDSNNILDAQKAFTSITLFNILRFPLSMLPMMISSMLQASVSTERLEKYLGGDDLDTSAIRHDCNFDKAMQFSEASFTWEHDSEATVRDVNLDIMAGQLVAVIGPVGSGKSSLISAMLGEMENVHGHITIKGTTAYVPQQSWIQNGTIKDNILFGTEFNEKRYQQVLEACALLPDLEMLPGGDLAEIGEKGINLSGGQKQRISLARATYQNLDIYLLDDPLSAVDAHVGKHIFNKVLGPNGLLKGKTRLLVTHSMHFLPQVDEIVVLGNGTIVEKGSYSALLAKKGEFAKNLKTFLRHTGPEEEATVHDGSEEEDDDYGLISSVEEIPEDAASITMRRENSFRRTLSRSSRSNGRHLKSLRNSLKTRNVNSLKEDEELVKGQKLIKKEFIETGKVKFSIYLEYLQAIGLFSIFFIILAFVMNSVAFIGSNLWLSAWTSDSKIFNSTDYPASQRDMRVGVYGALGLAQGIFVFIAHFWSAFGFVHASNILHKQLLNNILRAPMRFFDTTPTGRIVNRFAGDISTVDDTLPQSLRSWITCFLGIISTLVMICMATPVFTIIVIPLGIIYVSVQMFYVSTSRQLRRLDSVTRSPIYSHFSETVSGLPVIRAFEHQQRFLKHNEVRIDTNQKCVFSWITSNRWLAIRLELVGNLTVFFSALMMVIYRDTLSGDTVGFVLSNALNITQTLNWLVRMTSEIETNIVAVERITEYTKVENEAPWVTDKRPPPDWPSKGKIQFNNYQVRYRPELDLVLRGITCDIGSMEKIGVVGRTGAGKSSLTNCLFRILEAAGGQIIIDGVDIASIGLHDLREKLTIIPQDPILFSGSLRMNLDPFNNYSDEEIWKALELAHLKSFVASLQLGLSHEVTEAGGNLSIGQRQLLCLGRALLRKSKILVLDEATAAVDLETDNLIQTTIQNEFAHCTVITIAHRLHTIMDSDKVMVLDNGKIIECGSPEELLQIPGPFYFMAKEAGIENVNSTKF
Sequence of Bile salt export pump (O95342 whole entry): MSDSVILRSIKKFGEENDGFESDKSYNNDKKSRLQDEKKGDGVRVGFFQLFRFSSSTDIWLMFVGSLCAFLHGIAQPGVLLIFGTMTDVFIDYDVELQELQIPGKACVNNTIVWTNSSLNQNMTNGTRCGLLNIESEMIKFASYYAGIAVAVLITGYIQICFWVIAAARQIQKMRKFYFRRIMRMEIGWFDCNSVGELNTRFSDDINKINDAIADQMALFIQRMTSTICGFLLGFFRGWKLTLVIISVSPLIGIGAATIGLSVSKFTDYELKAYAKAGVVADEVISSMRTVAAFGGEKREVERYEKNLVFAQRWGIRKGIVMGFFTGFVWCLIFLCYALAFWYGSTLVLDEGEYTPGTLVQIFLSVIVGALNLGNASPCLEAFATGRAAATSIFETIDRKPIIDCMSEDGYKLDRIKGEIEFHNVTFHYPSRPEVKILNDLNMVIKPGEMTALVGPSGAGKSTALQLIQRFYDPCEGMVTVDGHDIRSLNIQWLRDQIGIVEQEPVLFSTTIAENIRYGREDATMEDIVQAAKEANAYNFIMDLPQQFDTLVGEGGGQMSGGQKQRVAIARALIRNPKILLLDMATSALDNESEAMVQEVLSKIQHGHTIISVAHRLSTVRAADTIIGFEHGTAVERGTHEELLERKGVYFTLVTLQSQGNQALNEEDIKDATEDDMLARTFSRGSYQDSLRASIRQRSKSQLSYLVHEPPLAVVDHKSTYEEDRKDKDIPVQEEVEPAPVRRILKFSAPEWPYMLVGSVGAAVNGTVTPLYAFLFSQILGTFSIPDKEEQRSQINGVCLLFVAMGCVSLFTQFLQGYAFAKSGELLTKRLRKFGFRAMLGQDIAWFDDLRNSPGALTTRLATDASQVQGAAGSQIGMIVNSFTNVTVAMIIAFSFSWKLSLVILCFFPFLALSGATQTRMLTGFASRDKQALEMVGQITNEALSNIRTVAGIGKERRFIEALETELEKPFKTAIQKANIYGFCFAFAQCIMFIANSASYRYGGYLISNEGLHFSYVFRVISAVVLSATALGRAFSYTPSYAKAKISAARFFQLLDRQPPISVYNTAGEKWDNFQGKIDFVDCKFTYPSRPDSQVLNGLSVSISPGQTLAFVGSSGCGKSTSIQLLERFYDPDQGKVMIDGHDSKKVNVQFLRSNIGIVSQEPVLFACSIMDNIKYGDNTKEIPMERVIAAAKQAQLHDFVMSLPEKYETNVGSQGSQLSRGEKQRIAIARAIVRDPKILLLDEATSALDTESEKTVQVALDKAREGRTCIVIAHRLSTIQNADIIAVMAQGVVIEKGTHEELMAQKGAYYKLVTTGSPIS

In the case of `CC(C)CN(C[C@@H](O)[C@H](Cc1ccccc1)NC(=O)O[C@H]1CCOC1)S(=O)(=O)c1ccc(N)cc1`, the IC50 (Bile salt export pump) is reported as 44.8 µM, the IC50 [1] is reported as greater than 133 µM and the IC50 [2] is reported as greater than 133 µM. The IC50 [3] was greater than 133 µM, the AUC at 12 h [4] was 52.2 µM·h and the concentration at 12 h [5] was 4350 nM. It also gave a Ratio [6] of 0.097.

`O=C(Nc1cccc2c(=O)cc(-c3nnn[nH]3)oc12)c1ccc(OCCCCc2ccccc2)cc1` gave an IC50 (Bile salt export pump) of 2.97 µM, an IC50 [1] greater than 133 µM and an IC50 [2] greater than 133 µM. For the same compound, the IC50 [3] was 2.7 µM, the AUC at 24 h [7] was 8.71 µM·h and the concentration at 24 h [8] was 363 nM. For the same compound, the Ratio [9] was 0.122 and the Ratio [10] was 0.134.

With `CCc1oc2ccccc2c1C(=O)c1cc(Br)c(O)c(Br)c1` [BENZBROMARONE] the IC50 [1] was 41.6 µM, the IC50 [2] was greater than 133 µM and the IC50 [3] was 17 µM. The AUC at 24 h [11] was 45 µM·h, the concentration at 24 h [12] was 1880 nM and the Ratio [13] was 0.107. It also gave a Ratio [14] of 0.045 and a Ratio [15] of 0.11.

Work on `COc1ccccc1Oc1c(NS(=O)(=O)c2ccc(C(C)(C)C)cc2)nc(-c2ncccn2)nc1OCCO` [BOSENTAN] yielded an IC50 (Bile salt export pump) of 23 µM, an IC50 [2] of 42 µM and an IC50 [3] of 22 µM. For the same compound, the AUC at 12 h [16] was 16.2 µM·h, the Css (Homo sapiens) was 1347 nM and the Ratio [17] was 0.059. It also gave a Ratio [18] of 0.032 and a Ratio [19] of 0.061.

Compound `COc1cc(N)c(Cl)cc1C(=O)NC1CCN(CCCOc2ccc(F)cc2)CC1OC.O` (stereo not given) [CISAPRIDE MONOHYDRATE] has an IC50 (Bile salt export pump) of 22 µM, an IC50 [1] greater than 133 µM and an IC50 [2] greater than 133 µM. It also gave an IC50 [3] greater than 133 µM, an AUC at 6 h [20] of 4.78 µM·h and a concentration at 6 h [21] of 797 nM. For the same compound, the Ratio [22] was 0.036.

Compound `CC1=C(/C=C/C(C)=C/C=C/C(C)=C\C(=O)O)C(C)(C)CCC1` [ISOTRETINOIN] has an IC50 (Bile salt export pump) of 37.1 µM, an IC50 [1] greater than 133 µM and an IC50 [2] greater than 133 µM. The IC50 [3] was greater than 133 µM, the AUC at 24 h [23] was 33.3 µM·h and the concentration at 24 h [24] was 1390 nM. It also gave a Ratio [25] of 0.037.

Source: ChEMBL document CHEMBL4028801, “A multifactorial approach to hepatobiliary transporter assessment enables improved therapeutic compound development” (Toxicol Sci, 2013)
